In patent US20060105023A1, “Treatment of neurological disorders with nicotine” (priority 2001, published 2006):

How the values were obtained:
[1] = within six hours, at a half life of about 60 minutes
Excerpt: It should be kept in mind that nicotine is a toxic compound. Therefore, only the minimum amount required for relief from smoking addiction or migraine symptoms should be used. […] Fortunately, nicotine is metabolized fairly rapidly.

adult = details: absorbed in one dose; cited from earlier work
[2] = people with average metabolic capacity for the compound; cited from earlier work

SMILES: CN1CCCC1c1cccnc1 (stereo not drawn) [nicotine]
- amount remaining of one mg of nicotine absorbed in the body [1]: about 0.031 mg
- lethal dose (adult): Sixty
- half life [2]: about 60 minutes
